Reference: publication PMC4915154, “Development of background-free tame fluorescent probes for intracellular live cell imaging” (Nature Communications, 2016)

System: azide-tagged intracellular organelles in U-2 OS cells
Experiment: Live cell SPAAC labelling of azide-tagged organelles (mitochondria, lysosome, golgi apparatus)
Format: cell-based, human
Settings: U-2 OS cells pre-treated with TPP-Az, Sphingo-Az or Morph-Az, 2 μM probe, 1 h, 37 °C
Source text: Next, we investigated intracellular imaging in live cells using CO-1. We synthesized various azide-bearing reporters: TPP-Az, a triphenylphosphonium analogue which accumulates in mitochondria; Sphingo-Az, a ceramide analogue to target golgi apparatus; and Morph-Az, an azide derivative with morpholine moiety as a directing group for lysosome (Fig. 3a). SPAAC covalent labelling reactions between CO-1 and all azide reporters in vitro were clean and rapid. We anticipated that the cell permeable CO-1 is capable of labelling any azide reporters effectively, regardless the reporters' cellular localization. We added 2 μM CO-1 to the growth media of U-2 OS cells pre-treated with TPP-Az, Sphingo-Az or Morph-Az separately. Confocal fluorescence images were then taken after probe washing.
Figure 3 Live cell imaging with CO-1. (a) Chemical structures and schematic illustration of the covalent labelling of azide-tagged organelles using CO-1 in live cells. (b) Fluorescence imaging of mitochondria, lysosome and golgi apparatus in U-2 OS cells labelled with CO-1. Cells pre-treated with TPP-Az, Morph-Az or Sphingo-Az were incubated with 2 μM CO-1 in growth media at 37 °C for 1 h and followed by counterstaining with organelle trackers. Scale bar, 15 μm. (c) Fluorescence imaging of histone H2B in live U-2 OS. U-2 OS cells were co-transfected with plasmids pIre-Azi3 and pmH2B-6-mKate2-16tag to incorporate UAA Azi into H2B-mKate2 at site 16. After Azi incorporation, cells were labelled with 10 μM CO-1 for 90 min at 37 °C. Cells were then washed and imaged. The mKate2 (red) signals were detected in cell nuclei only, and colocalized with the CO-1 (green) signals in the merged image. Scale bar, 5 μm.
U-2 OS cells were treated with 5 μM TPP-Az, in culture media for 2 h at 37 °C. After incubation, cells were washed and added with 2 μM CO-1 probe. Labelling was allowed to proceed for 1 h at 37 °C in the incubator chamber. […]
Fluorescence imaging of mitochondria, lysosome and golgi apparatus in U-2 OS cells labeled with CO-1H. […] In contrast to CO-1, high fluorescence background from CO-1H was observed. […]

For `Cc1cc(C)n2c1C(CCNC(=O)CCC(=O)OCC1C3CCC#CCCC31)=C1C=CC=[N+]1[B-]2(F)F` (centres unmarked) [CO-1], the “Fluorescence background after washing” value was “Clean fluorescence background” and the “Labelling of azide-tagged organelles” value was “clearly labelled the azide-tagged intracellular organelles in live cells”.
